This note sets out measurements from US12145941B2, “Heterocyclic antiviral agents” (ENANTA PHARMACEUTICALS, INC., priority 2021, dated 2024).

The term IC50 denotes the concentration that inhibits the measured activity by half.

The assay addresses SARS-CoV-2 3CL-protease (Severe acute respiratory syndrome coronavirus 2 (2019-nCoV) (SARS-CoV-2), UniProt P0DTD1). As to the kind of experiment: SARS-CoV-2 3C-like (3CL) protease fluorescence assay (FRET). Type of assay: biochemical. The settings on record: recombinant SARS-CoV-2 3CL-protease 10 nM, 30 min preincubation at RT, run in duplicate. How it is done:
SARS-CoV-2 3C-like (3CL) protease fluorescence assay (FRET): Recombinant SARS-CoV-2 3CL-protease was expressed and purified. TAMRA-[…]-Dabcyl-OH peptide 3CLpro substrate was synthesized. Black, low volume, round-bottom, 384 well microplates were used. In a typical assay, 0.85 μL of test compound was dissolved in DMSO then incubated with SARS-CoV-2 3CL-protease (10 nM) in 10 μL assay buffer (50 mM HEPES [pH 7.5], 1 mM DTT, 0.01% BSA, 0.01% Triton-X 100) for 30 min at RT. Next, 10 μL of 3CL-protease substrate (40 μM) in assay buffer was added and the assays were monitored continuously for 1 h in an Envision multimode plate reader operating in fluorescence kinetics mode with excitation at 540 nm and emission at 580 nm at RT. No compound (DMSO only) and no enzyme controls were routinely included in each plate. All experiments were run in duplicate. Data Analysis: SARS-CoV-2 3CL-protease enzyme activity was measured as initial velocity of the linear phase (RFU/s) and normalized to controlled samples DMSO (100% activity) and no enzyme (0% activity) to determine percent residual activity at various concentrations of test compounds (0-10 μM). Data were fitted to normalized activity (variable slope) versus concentration fit in GraphPad Prism 7 to determine IC50.

The mark [1] stands for this setting: TAMRA-SITSAVLQSGFRKMK-Dabcyl-OH substrate.

In the case of `CC(C)C[C@@H](C(=O)N1C[C@]2(C[C@H]1C#N)C(=O)Nc1ccccc12)N1Cc2c(cccc2C(F)(F)F)C1=O` [Compound 10], the IC50 (TAMRA-[…]-Dabcyl-OH substrate) was under 100 nM. `CC(C)(C)C[C@@H](C(=O)N1C[C@]2(C[C@H]1C#N)C(=O)Nc1ccccc12)N1Cc2cccnc2C1=O` [Compound 20]: the IC50 (TAMRA-[…]-Dabcyl-OH substrate) lay in the range of 100 to 1000 nM.

`CC(C)(C)C[C@@H](C(=O)N1C[C@]2(C[C@H]1C#N)C(=O)Nc1ccccc12)N1C(=O)c2ccc(F)cc2C1(C)C` [Compound 23, (3R,5'S)-1′-((S)-2-(6-fluoro-1,1-dimethyl-3-oxoisoindolin-2-yl)-4,4-dimethylpentanoyl)-2-oxospiro[indoline-3,3′-pyrrolidine]-5′-carbonitrile]: under “TAMRA-[…]-Dabcyl-OH substrate”, the IC50 lay in the range of 100 to 1000 nM. For the molecule `CC(C)(C)C[C@@H](C(=O)N1C[C@]2(C[C@H]1C#N)C(=O)Nc1ccccc12)N1CCc2cccc(F)c2C1=O` [Compound 8], under “TAMRA-[…]-Dabcyl-OH substrate”, the IC50 was 100 to 1000 nM.

In the case of `COc1ccc2c(c1)CN([C@@H](CC(C)(C)C)C(=O)N1C[C@]3(C[C@H]1C#N)C(=O)Nc1ccccc13)C2=O` [Compound 17], the IC50 (TAMRA-[…]-Dabcyl-OH substrate) was under 100 nM. For `COc1cccc2c1CN([C@@H](CC(C)(C)C)C(=O)N1C[C@]3(C[C@H]1C#N)C(=O)Nc1ccccc13)C2=O` [Compound 19], the IC50 (TAMRA-[…]-Dabcyl-OH substrate) is under 100 nM. Same read-out and setting: in the case of `CC(C)(C)C[C@@H](C(=O)N1C[C@]2(C[C@H]1C#N)C(=O)Nc1ccccc12)N1CCc2c(F)cccc2C1=O` [Compound 5] it was under 100 nM; in that of `CC(C)C[C@@H](C(=O)N1C[C@]2(C[C@H]1C#N)C(=O)Nc1ccccc12)N1C(=O)c2ccc(F)cc2C1(C)C` [Compound 24], over 1000 nM; in that of `CC(C)C[C@@H](C(=O)N1C[C@]2(C[C@H]1C#N)C(=O)Nc1ccccc12)N1CCc2cc(F)ccc2C1=O` [Compound 4], under 100 nM. Regarding `CC(C)(F)C[C@@H](C(=O)N1C[C@]2(C[C@H]1C#N)C(=O)Nc1ccccc12)N1Cc2cccc(Cl)c2C1=O` [Compound 16], the concentration for half-maximal inhibition (IC50) (TAMRA-[…]-Dabcyl-OH substrate) lay in the range of 100 to 1000 nM.

In the case of `CC(C)(F)C[C@@H](C(=O)N1C[C@]2(C[C@H]1C#N)C(=O)Nc1ccccc12)N1Cc2c(Cl)cccc2C1=O` [Compound 14], the IC50 (TAMRA-[…]-Dabcyl-OH substrate) was under 100 nM. With `CC(C)(F)C[C@@H](C(=O)N1C[C@]2(C[C@H]1C#N)C(=O)Nc1ccccc12)N1Cc2cc(Cl)ccc2C1=O` [Compound 13], the 50% inhibitory concentration (IC50) (TAMRA-[…]-Dabcyl-OH substrate) is under 100 nM. Consider `CC(C)(C)C[C@@H](C(=O)N1C[C@]2(C[C@H]1C#N)C(=O)Nc1ccccc12)N1Cc2c(cccc2C(F)(F)F)C1=O` [Compound 11], for which the IC50 (TAMRA-[…]-Dabcyl-OH substrate) was under 100 nM. In the case of `CC(C)C[C@@H](C(=O)N1C[C@]2(C[C@H]1C#N)C(=O)Nc1ccccc12)N1CCc2cccc(F)c2C1=O` [Compound 1, (3R,5'S)-1′-((S)-2-(8-fluoro-1-oxo-3,4-dihydroisoquinolin-2(1H)-yl)-4-methylpentanoyl)-2-oxospiro[indoline-3,3′-pyrrolidine]-5′-carbonitrile], the 50% inhibitory concentration (IC50) (TAMRA-[…]-Dabcyl-OH substrate) lay in the range of 100 to 1000 nM. As to `CC(C)(C)C[C@@H](C(=O)N1C[C@]2(C[C@H]1C#N)C(=O)Nc1ccccc12)N1CCc2cc(F)ccc2C1=O` [Compound 6], where the note is “TAMRA-[…]-Dabcyl-OH substrate”, the 50% inhibitory concentration (IC50) was under 100 nM. Same read-out and setting: for `CC(C)C[C@H](C(=O)N1C[C@]2(C[C@H]1C#N)C(=O)Nc1ccccc12)n1cccc(-c2ccncc2)c1=O` [Compound 26-b] the value was over 1000 nM.

For `CC(C)C[C@@H](C(=O)N1C[C@]2(C[C@H]1C#N)C(=O)Nc1ccccc12)N1C(=O)c2ccccc2[C@@H]1C` [Compound 22-b, (3R,5'S)-1′-((S)-4-methyl-2-((S)-1-methyl-3-oxoisoindolin-2-yl)pentanoyl)-2-oxospiro[indoline-3,3′-pyrrolidine]-5′-carbonitrile], the 50% inhibitory concentration (IC50) (TAMRA-[…]-Dabcyl-OH substrate) is under 100 nM. With `C=C1c2ccccc2C(=O)N1[C@@H](CC(C)C)C(=O)N1C[C@]2(C[C@H]1C#N)C(=O)Nc1ccccc12` [Compound 22-c, (3R,5'S)-1′-((S)-4-methyl-2-(1-methylene-3-oxoisoindolin-2-yl)pentanoyl)-2-oxospiro[indoline-3,3′-pyrrolidine]-5′-carbonitrile], under “TAMRA-[…]-Dabcyl-OH substrate”, the IC50 was under 100 nM. Same read-out and setting: for `CC(C)C[C@@H](C(=O)N1C[C@]2(C[C@H]1C#N)C(=O)Nc1ccccc12)n1cccc(-c2ccncc2)c1=O` [Compound 26-a] the value was 100 to 1000 nM. On to `CC(C)C[C@@H](C(=O)N1C[C@]2(C[C@H]1C#N)C(=O)Nc1ccccc12)N1CCc2c(F)cccc2C1=O` [Compound 3], for which the IC50 (TAMRA-[…]-Dabcyl-OH substrate) was under 100 nM. On the same count and under the same terms, for `CC(C)(F)C[C@@H](C(=O)N1C[C@]2(C[C@H]1C#N)C(=O)Nc1ccccc12)N1Cc2ncc(Cl)cc2C1=O` [Compound 21] the value was under 100 nM; for `COc1ccc2c(c1)C(=O)N([C@@H](CC(C)(C)C)C(=O)N1C[C@]3(C[C@H]1C#N)C(=O)Nc1ccccc13)C2` [Compound 18], under 100 nM. For `CC(C)C[C@@H](C(=O)N1C[C@]2(C[C@H]1C#N)C(=O)Nc1ccccc12)N1CCc2ccc(F)cc2C1=O` [Compound 2], for the setting “TAMRA-[…]-Dabcyl-OH substrate”, the 50% inhibitory concentration (IC50) was under 100 nM. For the molecule `CC(C)C[C@H](C(=O)N1C[C@]2(C[C@H]1C#N)C(=O)Nc1ccccc12)n1cccc(-c2ccc(F)cc2)c1=O` [Compound 25-b], the IC50 under setting [1] was over 1000 nM. For `CC(C)(C)C[C@@H](C(=O)N1C[C@]2(C[C@H]1C#N)C(=O)Nc1ccccc12)N1Cc2cc(Cl)ccc2C1=O` [Compound 12], under “TAMRA-[…]-Dabcyl-OH substrate”, the concentration for half-maximal inhibition (IC50) was under 100 nM. Same read-out and setting: in the case of `CC(C)(C)C[C@@H](C(=O)N1C[C@]2(C[C@H]1C#N)C(=O)Nc1ccccc12)N1CCc2ccc(F)cc2C1=O` [Compound 7] it was under 100 nM. Regarding `CC(C)C[C@@H](C(=O)N1C[C@]2(C[C@H]1C#N)C(=O)Nc1ccccc12)N1Cc2cc(Br)ccc2C1=O` [Compound 9, (3R,5'S)-1′-((S)-2-(5-bromo-1-oxoisoindolin-2-yl)-4-methylpentanoyl) oxospiro[indoline-3,3′-pyrrolidine]-5′-carbonitrile], the IC50 under setting [1] was under 100 nM.

Consider `CC(C)C[C@@H](C(=O)N1C[C@]2(C[C@H]1C#N)C(=O)Nc1ccccc12)N1C(=O)c2ccccc2[C@H]1C` [Compound 22-a, (3R,5'S)-1′-((S)-4-methyl-2-((R)-1-methyl-3-oxoisoindolin-2-yl)pentanoyl)-2-oxospiro[indoline-3,3′-pyrrolidine]-5′-carbonitrile], for which the half-inhibitory concentration (IC50) (TAMRA-[…]-Dabcyl-OH substrate) is under 100 nM. `CC(C)(F)C[C@@H](C(=O)N1C[C@]2(C[C@H]1C#N)C(=O)Nc1ccccc12)N1Cc2ccc(Cl)cc2C1=O` [Compound 15]: the IC50 (TAMRA-[…]-Dabcyl-OH substrate) is under 100 nM.
